Assay results reported in ChEMBL document CHEMBL5724806, “Unraveling interindividual differences and functional consequences of gut microbial metabolism of immunosuppressants” (2024).

Key:
Assay type in all cases: ADME
[1] = (§1) The drug is tested on Bifidobacterium adolescentis strain: DSM20083 for biotransformation under anaerobic condition. The drug concentrations were measured over 6 timepoints collected between 0 and 12 hours of incubation by liquid-chromatography-coupled mass spectrometry (LC–MS); set-up: dose 5 uM, timepoint 0, 1.5, 3, 6, 9, 12 hours; conditions: 5 µM
[2] = The drug is tested on Bifidobacterium longum strain: DSM20088 for biotransformation under anaerobic condition. The drug concentrations were measured over 6 timepoints collected between 0 and 12 hours of incubation by liquid-chromatography-coupled mass spectrometry (LC–MS); set-up: dose 5 uM, timepoint 0, 1.5, 3, 6, 9, 12 hours; conditions: 5 µM
[3] = The drug is tested on Bacteroides fragilis strain: DSM2151 for biotransformation under anaerobic condition. The drug concentrations were measured over 6 timepoints collected between 0 and 12 hours of incubation by liquid-chromatography-coupled mass spectrometry (LC–MS); set-up: dose 5 uM, timepoint 0, 1.5, 3, 6, 9, 12 hours; conditions: 5 µM
[4] = The drug is tested on Bacteroides stercoris strain: HM 1036 for biotransformation under anaerobic condition. The drug concentrations were measured over 6 timepoints collected between 0 and 12 hours of incubation by liquid-chromatography-coupled mass spectrometry (LC–MS); set-up: dose 5 uM, timepoint 0, 1.5, 3, 6, 9, 12 hours; conditions: 5 µM
[5] = The drug is tested on Prevotella copri strain: DSM18205 for biotransformation under anaerobic condition. The drug concentrations were measured over 6 timepoints collected between 0 and 12 hours of incubation by liquid-chromatography-coupled mass spectrometry (LC–MS); set-up: dose 5 uM, timepoint 0, 1.5, 3, 6, 9, 12 hours; conditions: segatella copri, 5 µM
[6] = The drug is tested on Eubacterium eligens strain: DSM3376 for biotransformation under anaerobic condition. The drug concentrations were measured over 6 timepoints collected between 0 and 12 hours of incubation by liquid-chromatography-coupled mass spectrometry (LC–MS); set-up: dose 5 uM, timepoint 0, 1.5, 3, 6, 9, 12 hours; conditions: lachnospira eligens, 5 µM
[7] = The drug is tested on Eubacterium rectale strain: DSM17629 for biotransformation under anaerobic condition. The drug concentrations were measured over 6 timepoints collected between 0 and 12 hours of incubation by liquid-chromatography-coupled mass spectrometry (LC–MS); set-up: dose 5 uM, timepoint 0, 1.5, 3, 6, 9, 12 hours; conditions: agathobacter rectalis, 5 µM
[8] = The drug is tested on Ruminococcus gnavus strain: ATCC29149 for biotransformation under anaerobic condition. The drug concentrations were measured over 6 timepoints collected between 0 and 12 hours of incubation by liquid-chromatography-coupled mass spectrometry (LC–MS); set-up: dose 5 uM, timepoint 0, 1.5, 3, 6, 9, 12 hours; conditions: mediterraneibacter gnavus, 5 µM
[9] = The drug is tested on Streptococcus salivarius strain: DSM20560 for biotransformation under anaerobic condition. The drug concentrations were measured over 6 timepoints collected between 0 and 12 hours of incubation by liquid-chromatography-coupled mass spectrometry (LC–MS); set-up: dose 5 uM, timepoint 0, 1.5, 3, 6, 9, 12 hours; conditions: 5 µM
[10] = (§2) The drug is tested on Actinomyces naeslundi strain: DSM43013 for biotransformation under microaerobic condition. The drug concentrations were measured over 6 timepoints collected between 0 and 12 hours of incubation by liquid-chromatography-coupled mass spectrometry (LC–MS); set-up: dose 5 uM, timepoint 0, 1.5, 3, 6, 9, 12 hours; conditions: actinomyces naeslundii, 5 µM
[11] = The drug is tested on Capnocytophaga ochracea strain: DSM7271 for biotransformation under microaerobic condition. The drug concentrations were measured over 6 timepoints collected between 0 and 12 hours of incubation by liquid-chromatography-coupled mass spectrometry (LC–MS); set-up: dose 5 uM, timepoint 0, 1.5, 3, 6, 9, 12 hours; conditions: 5 µM
[12] = The drug is tested on Gemella haemolysans strain: DSM107751 for biotransformation under microaerobic condition. The drug concentrations were measured over 6 timepoints collected between 0 and 12 hours of incubation by liquid-chromatography-coupled mass spectrometry (LC–MS); set-up: dose 5 uM, timepoint 0, 1.5, 3, 6, 9, 12 hours; conditions: 5 µM
[13] = The drug is tested on Lactobacillus paracasei strain: ATCC27092 for biotransformation under microaerobic condition. The drug concentrations were measured over 6 timepoints collected between 0 and 12 hours of incubation by liquid-chromatography-coupled mass spectrometry (LC–MS); set-up: dose 5 uM, timepoint 0, 1.5, 3, 6, 9, 12 hours; conditions: lacticaseibacillus paracasei, 5 µM
[14] = The drug is tested on Streptococcus salivarius strain: DSM20560 for biotransformation under microaerobic condition. The drug concentrations were measured over 6 timepoints collected between 0 and 12 hours of incubation by liquid-chromatography-coupled mass spectrometry (LC–MS); set-up: dose 5 uM, timepoint 0, 1.5, 3, 6, 9, 12 hours; conditions: 5 µM
[15] = as §1, with “the gut metagenome community of A-06 with ENA study accession number: PRJEB31790” for “Bifidobacterium adolescentis strain: DSM20083”, “7” for “6”; set-up: dose 5 uM, timepoint 0, 0.75, 1.5, 3, 6, 9, 12 hours; conditions: 5 µM
[16] = as §1, with “the gut metagenome community of A-08 with ENA study accession number: PRJEB31790” for “Bifidobacterium adolescentis strain: DSM20083”, “7” for “6”; set-up: dose 5 uM, timepoint 0, 0.75, 1.5, 3, 6, 9, 12 hours; conditions: 5 µM
[17] = as §1, with “the gut metagenome community of P-04 with ENA study accession number: PRJEB31790” for “Bifidobacterium adolescentis strain: DSM20083”, “7” for “6”; set-up: dose 5 uM, timepoint 0, 0.75, 1.5, 3, 6, 9, 12 hours; conditions: 5 µM
[18] = as §1, with “the gut metagenome community of T-01 with ENA study accession number: PRJEB31790” for “Bifidobacterium adolescentis strain: DSM20083”, “7” for “6”; set-up: dose 5 uM, timepoint 0, 0.75, 1.5, 3, 6, 9, 12 hours; conditions: 5 µM
[19] = as §1, with “the gut metagenome community of T-04 with ENA study accession number: PRJEB31790” for “Bifidobacterium adolescentis strain: DSM20083”, “7” for “6”; set-up: dose 5 uM, timepoint 0, 0.75, 1.5, 3, 6, 9, 12 hours; conditions: 5 µM
[20] = as §1, with “the gut metagenome community of T-05 with ENA study accession number: PRJEB31790” for “Bifidobacterium adolescentis strain: DSM20083”, “7” for “6”; set-up: dose 5 uM, timepoint 0, 0.75, 1.5, 3, 6, 9, 12 hours; conditions: 5 µM
[21] = as §2, with “the gut metagenome community of A-04 with ENA study accession number: PRJEB31790” for “Actinomyces naeslundi strain: DSM43013”, “7” for “6”; set-up: dose 5 uM, timepoint 0, 0.75, 1.5, 3, 6, 9, 12 hours; conditions: 5 µM
[22] = as §2, with “the gut metagenome community of A-05 with ENA study accession number: PRJEB31790” for “Actinomyces naeslundi strain: DSM43013”, “7” for “6”; set-up: dose 5 uM, timepoint 0, 0.75, 1.5, 3, 6, 9, 12 hours; conditions: 5 µM
[23] = as §2, with “the gut metagenome community of A-07 with ENA study accession number: PRJEB31790” for “Actinomyces naeslundi strain: DSM43013”, “7” for “6”; set-up: dose 5 uM, timepoint 0, 0.75, 1.5, 3, 6, 9, 12 hours; conditions: 5 µM
[24] = as §2, with “the gut metagenome community of A-09 with ENA study accession number: PRJEB31790” for “Actinomyces naeslundi strain: DSM43013”, “7” for “6”; set-up: dose 5 uM, timepoint 0, 0.75, 1.5, 3, 6, 9, 12 hours; conditions: 5 µM
[25] = as §2, with “the gut metagenome community of P-01 with ENA study accession number: PRJEB31790” for “Actinomyces naeslundi strain: DSM43013”, “7” for “6”; set-up: dose 5 uM, timepoint 0, 0.75, 1.5, 3, 6, 9, 12 hours; conditions: 5 µM
[26] = as §2, with “the gut metagenome community of P-02 with ENA study accession number: PRJEB31790” for “Actinomyces naeslundi strain: DSM43013”, “7” for “6”; set-up: dose 5 uM, timepoint 0, 0.75, 1.5, 3, 6, 9, 12 hours; conditions: 5 µM
[27] = as §2, with “the gut metagenome community of P-03 with ENA study accession number: PRJEB31790” for “Actinomyces naeslundi strain: DSM43013”, “7” for “6”; set-up: dose 5 uM, timepoint 0, 0.75, 1.5, 3, 6, 9, 12 hours; conditions: 5 µM
[28] = as §2, with “the gut metagenome community of T-01 with ENA study accession number: PRJEB31790” for “Actinomyces naeslundi strain: DSM43013”, “7” for “6”; set-up: dose 5 uM, timepoint 0, 0.75, 1.5, 3, 6, 9, 12 hours; conditions: 5 µM
[29] = as §2, with “the gut metagenome community of T-02 with ENA study accession number: PRJEB31790” for “Actinomyces naeslundi strain: DSM43013”, “7” for “6”; set-up: dose 5 uM, timepoint 0, 0.75, 1.5, 3, 6, 9, 12 hours; conditions: 5 µM
[30] = as §2, with “the gut metagenome community of T-04 with ENA study accession number: PRJEB31790” for “Actinomyces naeslundi strain: DSM43013”, “7” for “6”; set-up: dose 5 uM, timepoint 0, 0.75, 1.5, 3, 6, 9, 12 hours; conditions: 5 µM
[31] = as §2, with “the gut metagenome community of T-05 with ENA study accession number: PRJEB31790” for “Actinomyces naeslundi strain: DSM43013”, “7” for “6”; set-up: dose 5 uM, timepoint 0, 0.75, 1.5, 3, 6, 9, 12 hours; conditions: 5 µM

| Bacterial Biotransformation [1] | Bacterial Biotransformation [2] | Bacterial Biotransformation [3] | Bacterial Biotransformation [4] | Bacterial Biotransformation [5] | Bacterial Biotransformation [6] | Bacterial Biotransformation [7] | Bacterial Biotransformation [8] | Bacterial Biotransformation [9] | Bacterial Biotransformation [10] | Bacterial Biotransformation [11] | Bacterial Biotransformation [13] | Bacterial Biotransformation [14] | Bacterial Biotransformation [15] | Bacterial Biotransformation [16] | Bacterial Biotransformation [17] | Bacterial Biotransformation [18] | Bacterial Biotransformation [19] | Bacterial Biotransformation [20] | Compound | Bacterial Biotransformation [12] | other results |
| --- | --- | --- | --- | --- | --- | --- | --- | --- | --- | --- | --- | --- | --- | --- | --- | --- | --- | --- | --- | --- | --- |
| Compound NOT metabolized | Compound NOT metabolized | Compound NOT metabolized | Compound NOT metabolized | Compound NOT metabolized | Compound NOT metabolized | Compound NOT metabolized | Compound NOT metabolized | Compound NOT metabolized | Compound NOT metabolized | Compound NOT metabolized | Compound NOT metabolized | Compound NOT metabolized | Compound NOT metabolized | Compound NOT metabolized | Compound NOT metabolized | Compound NOT metabolized | Compound NOT metabolized | Compound NOT metabolized | CC(C)NCC(O)COc1ccc(CC(N)=O)cc1 (stereo not drawn) [ATENOLOL] | Compound NOT metabolized | Bacterial Biotransformation [21]: Compound NOT metabolized; Bacterial Biotransformation [22]: Compound NOT metabolized; Bacterial Biotransformation [23]: Compound NOT metabolized; Bacterial Biotransformation [24]: Compound NOT metabolized; Bacterial Biotransformation [25]: Compound NOT metabolized; Bacterial Biotransformation [26]: Compound NOT metabolized; Bacterial Biotransformation [27]: Compound NOT metabolized; Bacterial Biotransformation [28]: Compound NOT metabolized; Bacterial Biotransformation [29]: Compound NOT metabolized; Bacterial Biotransformation [30]: Compound NOT metabolized; Bacterial Biotransformation [31]: Compound NOT metabolized |
| Compound metabolized | Compound metabolized | Compound metabolized | Compound metabolized | Compound metabolized | Compound metabolized | Compound metabolized | Compound metabolized | Compound metabolized | Compound NOT metabolized | Compound metabolized | Compound NOT metabolized | Compound metabolized | Compound metabolized | Compound metabolized | Compound NOT metabolized | Compound metabolized | Compound NOT metabolized | Compound metabolized | Cn1cnc([N+](=O)[O-])c1Sc1ncnc2nc[nH]c12 [AZATHIOPRINE] | Compound NOT metabolized | Bacterial Biotransformation [21]: Compound metabolized; Bacterial Biotransformation [22]: Compound metabolized; Bacterial Biotransformation [23]: Compound metabolized; Bacterial Biotransformation [24]: Compound metabolized; Bacterial Biotransformation [25]: Compound NOT metabolized; Bacterial Biotransformation [26]: Compound NOT metabolized; Bacterial Biotransformation [27]: Compound NOT metabolized; Bacterial Biotransformation [28]: Compound NOT metabolized; Bacterial Biotransformation [29]: Compound NOT metabolized; Bacterial Biotransformation [30]: Compound NOT metabolized; Bacterial Biotransformation [31]: Compound NOT metabolized |

| Compound | Bacterial Biotransformation [1] | Bacterial Biotransformation [2] | Bacterial Biotransformation [3] | Bacterial Biotransformation [4] | Bacterial Biotransformation [5] | Bacterial Biotransformation [6] | Bacterial Biotransformation [7] | Bacterial Biotransformation [8] | Bacterial Biotransformation [9] | Bacterial Biotransformation [10] | Bacterial Biotransformation [11] | Bacterial Biotransformation [13] | Bacterial Biotransformation [14] | Bacterial Biotransformation [15] | Bacterial Biotransformation [16] | Bacterial Biotransformation [17] | Bacterial Biotransformation [18] | Bacterial Biotransformation [19] | Bacterial Biotransformation [20] | Bacterial Biotransformation [12] | other results |
| --- | --- | --- | --- | --- | --- | --- | --- | --- | --- | --- | --- | --- | --- | --- | --- | --- | --- | --- | --- | --- | --- |
| CCOC(=O)C1=C(COCCN)NC(C)=C(C(=O)OC)C1c1ccccc1Cl (stereo not drawn) [AMLODIPINE] | Compound NOT metabolized | Compound NOT metabolized | Compound NOT metabolized | Compound NOT metabolized | Compound NOT metabolized | Compound NOT metabolized | Compound NOT metabolized | Compound NOT metabolized | Compound NOT metabolized | Compound NOT metabolized | Compound NOT metabolized | Compound NOT metabolized | Compound NOT metabolized | Compound NOT metabolized | Compound NOT metabolized | Compound NOT metabolized | Compound NOT metabolized | Compound NOT metabolized | Compound NOT metabolized | Compound NOT metabolized | Bacterial Biotransformation [21]: Compound NOT metabolized; Bacterial Biotransformation [22]: Compound NOT metabolized; Bacterial Biotransformation [23]: Compound NOT metabolized; Bacterial Biotransformation [24]: Compound NOT metabolized; Bacterial Biotransformation [25]: Compound NOT metabolized; Bacterial Biotransformation [26]: Compound NOT metabolized; Bacterial Biotransformation [27]: Compound NOT metabolized; Bacterial Biotransformation [28]: Compound NOT metabolized; Bacterial Biotransformation [29]: Compound NOT metabolized; Bacterial Biotransformation [30]: Compound NOT metabolized; Bacterial Biotransformation [31]: Compound NOT metabolized |
